Structures can show the parent of a compound that is named as a salt. Where two headings read alike, the source gives them in different places.
Experiments:
[1] = in vivo; conditions: mouse, in vivo, mice, isotonic aqueous solution
Description: (§1) It is determined on mice, the products being administered orally, intraperitoneally, and intraveneously in isotonic aqueous solution.

[2] = tested on: guinea pigs; assay: Citric acid aerosol method on guinea pigs (antitussive); format: in vivo; conditions: for change in vivo at 50 mg/kg: Cavia porcellus, ip, 0.25 h, 50 mg/kg i.p., 20 minutes before 20% citric acid aerosol, read-out: % reduction of no. of coughs in 15 minutes; for % decrease in no. coughs in 15 mins.: orally, citric acid aerosol
Description: The animals were subjected to a 20% citric acid aerosol for 15 minutes.
The coughs were recorded by a microphone.
The products were administered intraperitoneally 20 minutes before the exposure to the aerosol.
Some derivatives were also tested orally.

[3] = Solubility characteristics; format: physicochemical; conditions: for Solubility in water / solubility: water
[4] = tested on: mice; assay: in vivo; conditions: isotonic aqueous solution
Description: as §1

[5] = tested on: guinea pig; assay: Takagi's technique: coughing by mechanical stimulation of the tracheal bifurcation in the unanesthetized guinea pig; format: in vivo; conditions: 50 mg/kg i.p.; for Cough rating, m = average of the ratings, after treatment: 1 heavy, 0.5 light, 0 no cough
Description: A second method using a different type of stimulation of coughs made it possible to note, as compared with codeine, the antitussive properties of the main components claimed.
The technique employed is derived from Takagi's technique, and consists in causing coughing by mechanical stimulation of the tracheal bifurcation in the unanesthetized guinea pig.
The cough is evaluated by the research worker in accordance with the following scale:
The products are administered intraperitoneally and the stimulation is effected 10 and 20 minutes after the injection.

[6] = tested on: Candida albicans; assay: Fungistatic/bacteriostatic effect, Candida albicans; format: cell-based; conditions: compared with S. aureus and E. coli
Description: (§2) The determination of fungistatic bacteriostatic properties was carried out by two methods on four strains:
(§3) Halved serial dilutions are formed in a hemoylsis tube, in each case to a volume of 1 ml; each dilution is inoculated with 10^6 micro-organisms per ml. After 48 hours in the oven, the minimum inhibitory concentration is determined. A subculture of the negative tubes (bacteriostatic), makes it possible to note the bactericidal concentration.

[7] = tested on: micro-organisms; assay: Bactericidal action (subculture of the negative tubes); format: cell-based; conditions: at concentrations of 1 g percent
Description: as §2, §3

[8] = tested on: Pseudomonas aeruginosa; assay: Fungistatic/bacteriostatic effect, Pseudomonas aeruginosa; format: cell-based; conditions: compared with S. aureus and E. coli
Description: as §2, §3

[9] = tested on: mice; assay: Antalgic properties: decrease in contortions caused by phenyl benzoquinone, in mice; format: in vivo; conditions: 150 mg/kg by mouth
Description: The antalgic properties with respect to a decrease in contortions caused by phenyl benzoquinone, as measured in mice, are very clear from the 150 mg/kg by mouth in the case of F 1534 (40% decrease), F 1539 (75% decrease), and F 1541 (60% decrease).

[10] = Local anesthesia activity; conditions: compared with procaine
[11] = ip, intraperitoneal, read-out: DL 50 intraperitoneal
[12] = iv, intravenous, read-out: DL 50 intravenous

Structure (SMILES): COc1cc(C(=O)NCCN2CCCC2)cc(OC)c1OC [F 1538, N(2'-pyrrolidino-ethyl)-3-4-5-trimethoxy-benzamide hydrochloride]
- LD50 [1, 11]: 300 mg/kg
- LD50 ([1]; po, oral, read-out: DL 50 oral): 562 mg/kg
- change in vivo at 50 mg/kg [2]: -1%
- Solubility in ethanol ([3]; in words): soluble
- Solubility in propylene glycol ([3]; in words): soluble
- Solubility in water ([3]; in words): soluble

Structure (SMILES): O=C(NCCN1CCCC1)C(c1ccccc1)c1ccccc1 [F 1630, N(2-pyrrolidino-ethyl)-α,α-diphenyl-acetamide palmitate]
- DL 50 intraperitoneal [4]: 500 mg/kg
- DL 50 oral [4]: 1500 mg/kg
- Solubility in alcohol ([3]; in words): Poorly soluble
- Solubility in dimethyl acetamide ([3]; in words): Poorly soluble
- Solubility in methyl pyrrolidone ([3]; in words): Poorly soluble
- Solubility in propylene glycol ([3]; in words): Poorly soluble
- Solubility in water ([3]; in words): Insoluble

Structure (SMILES): CCOC(C(=O)NCCN1CCCC1)(c1ccccc1)c1ccccc1 [F 1460, N(2-pyrrolidino-ethyl)-α,α-diphenyl-α-ethoxy-acetamide hydrochloride]
- LD50 [1, 11]: 178 mg/kg
- LD50 [1, 12]: 40 mg/kg
- LD50 ([1]; po, oral, read-out: DL 50 oral): 750 mg/kg
- Solubility in ethanol ([3]; % soluble): 4%
- Solubility in ether ([3]; in words): insoluble
- solubility ([3]; % soluble): 10 mg/mL

Structure (SMILES): O=C(NCCN1CCCC1)C(c1ccccc1)c1ccccc1 [F 1459, N(2'-pyrrolidino-ethyl)-α,α-diphenyl acetamide hydrochloride]
- DL 50 oral ([4]; hydrochloride): 562 mg/kg
- LD50 [1, 12]: 48 mg/kg
- % variation of cough rating ([5]; t + 10 mn): -32%
- Cough rating, m = average of the ratings, after treatment ([5]; t + 10 mn): 0,67
- % variation of cough rating ([5]; t + 20 mn): -66%
- Cough rating, m = average of the ratings, after treatment ([5]; t + 20 mn): 0,33
- effect on Candida albicans [6]: more moderate but significant effect
- % decrease in no. coughs in 15 mins. ([2]; 50 mg/kg, hydrochloride): -31
- bactericidal action [7]: real and significant
- effect on Pseudomonas aeruginosa [8]: more moderate but significant effect
- Solubility in ethanol ([3]; % soluble): 5%
- Solubility in propylene glycol ([3]; % soluble): 3%
- solubility ([3]; % soluble): 250 mg/mL

Structure (SMILES): O=C(NCCN1CCCC1)C(c1ccccc1)N1CCCCC1 (centres unmarked) [F 1533, N(2'-pyrrolidino-ethyl)phenyl piperidino-acetamide]
- LD50 [1, 11]: 178 mg/kg
- LD50 ([1]; po, oral, read-out: DL 50 oral): 750 mg/kg
- effect on Candida albicans [6]: more moderate but significant effect
- change in vivo at 50 mg/kg [2]: -7%
- bactericidal action [7]: real and significant
- effect on Pseudomonas aeruginosa [8]: more moderate but significant effect
- Solubility in ethanol ([3]; in words): Very soluble
- Solubility in water ([3]; in words): insoluble

Structure (SMILES): O=C(O)c1ccccc1C(=O)NCCN1CCCC1 [F 1537, N(2'-pyrrolidino-ethyl)-2-carboxy-benzamide]
- LD50 [1, 11]: 500 mg/kg
- LD50 ([1]; po, oral, read-out: DL 50 oral): 1000 mg/kg
- change in vivo at 50 mg/kg [2]: -8%
- Solubility in ethanol ([3]; in words): very soluble
- Solubility in propylene glycol ([3]; in words): very soluble
- Solubility in water ([3]; in words): very soluble

Structure (SMILES): CC(C)(Oc1ccccc1)C(=O)NCCN1CCCC1 [F 1540, N(2'-pyrrolidino-ethyl)phenoxy-isobutyramide hydrochloride]
- LD50 [1, 11]: 237 mg/kg
- LD50 ([1]; po, oral, read-out: DL 50 oral): 1000 mg/kg
- Solubility in ethanol ([3]; in words): soluble
- Solubility in propylene glycol ([3]; in words): soluble
- Solubility in water ([3]; in words): soluble

Structure (SMILES): O=C(NCCN1CCCC1)C(c1ccccc1)c1ccccc1 [F 1629, N(2-pyrrolidino-ethyl)-α,α-diphenyl-acetamide pamoate]
- DL 50 intraperitoneal [4]: 750 mg/kg
- DL 50 oral [4]: 2000 mg/kg
- % decrease in no. coughs in 15 mins. ([2]; 50 mg/kg): -30
- % decrease in no. coughs in 15 mins. ([2]; 100 mg/kg): -50
- Solubility in alcohol ([3]; in words): Insoluble
- Solubility in dimethyl acetamide ([3]; in words): Soluble
- Solubility in methyl pyrrolidone ([3]; in words): Soluble
- Solubility in water ([3]; in words): Insoluble

Structure (SMILES): O=C(COc1ccc(Cl)cc1)NCCN1CCCC1 [F 1539, N(2'-pyrrolidino-ethyl)-4-chloro-phenoxy-acetamide hydrochloride]
- LD50 [1, 11]: 178 mg/kg
- LD50 ([1]; po, oral, read-out: DL 50 oral): 1000 mg/kg
- decrease in contortions caused by phenyl benzoquinone [9]: 75%
- Solubility in ethanol ([3]; in words): soluble
- Solubility in propylene glycol ([3]; in words): soluble
- Solubility in water ([3]; in words): soluble

Structure (SMILES): O=C(NCCN1CCCC1)c1cc2ccccc2oc1=O [Example 14, N(2'-pyrrolidino-ethyl)-3-coumarin-carboxamide hydrochloride]
- Solubility in ethanol ([3]; % soluble): 4%
- Solubility in propylene glycol ([3]; % soluble): 7%
- Solubility in water ([3]; in words): very soluble

Structure (SMILES): O=C(NCCN1CCCC1)C(O)(c1ccccc1)c1ccccc1 [F 1535, N(2'-pyrrolidino-ethyl)-α,α-diphenyl-hydroxy-acetamide hydrochloride]
- LD50 [1, 11]: 237 mg/kg
- LD50 ([1]; oral, read-out: DL 50 oral): 562 mg/kg
- Solubility in water ([3]; in words): very soluble
- local anesthesia activity [10]: high order of local anesthesia activity comparable to that of procaine

Structure (SMILES): O=C(NCCN1CCCC1)C1c2ccccc2Oc2ccccc21 [F 1534, N(2'-pyrrolidino-ethyl)-9-xanthene carboxamide hydrochloride]
- LD50 [1, 11]: 178 mg/kg
- LD50 ([1]; po, oral, read-out: DL 50 oral): 750 mg/kg
- effect on Candida albicans [6]: more moderate but significant effect
- bactericidal action [7]: real and significant
- effect on Pseudomonas aeruginosa [8]: more moderate but significant effect
- decrease in contortions caused by phenyl benzoquinone [9]: 40%
- Solubility in ethanol ([3]; % soluble): 10%
- Solubility in propylene glycol ([3]; % soluble): 10%
- Solubility in water ([3]; in words): very soluble
- local anesthesia activity [10]: high order of local anesthesia activity comparable to that of procaine

Structure (SMILES): C=CCOc1c(C)cc(Br)cc1C(=O)NCCN1CCCC1 [F 1479, N(2'-pyrrolidino-ethyl)-2-allyloxy-5-bromo-3-methyl benzamide hydrochloride]
- Solubility in water ([3]; in words): very soluble

Structure (SMILES): O=C(NCCN1CCCC1)N1c2ccccc2Sc2ccccc21 [F 1461, N(2'-pyrrolidino-ethyl)-10-phenothiazine carboxamide hydrochloride]
- LD50 [1, 11]: 178 mg/kg
- LD50 [1, 12]: 26 mg/kg
- LD50 ([1]; po, oral, read-out: DL 50 oral): 560 mg/kg
- % variation of cough rating ([5]; t + 10 mn): -35%
- Cough rating, m = average of the ratings, after treatment ([5]; t + 10 mn): 0,54
- % variation of cough rating ([5]; t + 20 mn): -55%
- Cough rating, m = average of the ratings, after treatment ([5]; t + 20 mn): 0,37
- % decrease in no. coughs in 15 mins. ([2]; 50 mg/kg): -12
- % decrease in no. coughs in 15 mins. ([2]; 100 mg/kg): -25
- Solubility in N-methyl pyrrolidone ([3]; N-methyl pyrrolidone, % soluble): 10%
- Solubility in ethanol ([3]; % soluble): 10%
- Solubility in propylene glycol ([3]; % soluble): 10%
- solubility ([3]; % soluble): 100 mg/mL

Structure (SMILES): O=C(C=Cc1ccccc1)NCCN1CCCC1 [F 1542, N(2'-pyrrolidino-ethyl)cinnamide, HCl]
- LD50 [1, 11]: 178 mg/kg
- LD50 ([1]; po, oral, read-out: DL 50 oral): 1000 mg/kg
- change in vivo at 50 mg/kg [2]: -19.5%
- Solubility in ethanol ([3]; in words): very soluble
- Solubility in propylene glycol ([3]; in words): very soluble
- Solubility in water ([3]; in words): very soluble

Structure (SMILES): O=C(NCCN1CCCC1)C1c2ccccc2-c2ccccc21 [F 1532, N(2'-pyrrolidino-ethyl)-9-fluoroene-carboxamide hydrochloride]
- LD50 [1, 11]: 75 mg/kg
- LD50 ([1]; po, oral, read-out: DL 50 oral): 178 mg/kg
- effect on Candida albicans [6]: more moderate but significant effect
- bactericidal action [7]: real and significant
- effect on Pseudomonas aeruginosa [8]: more moderate but significant effect
- Solubility in ethanol ([3]; in words): very soluble
- Solubility in propylene glycol ([3]; in words): very soluble
- Solubility in water ([3]; in words): very soluble

Structure (SMILES): CC(C)(Oc1ccc(Cl)cc1)C(=O)NCCN1CCCC1 [F 1541, N(2'-pyrrolidino-ethyl)-4-chloro-phenoxy-isobutyramide hydrochloride]
- LD50 [1, 11]: 178 mg/kg
- LD50 ([1]; po, oral, read-out: DL 50 oral): 562 mg/kg
- decrease in contortions caused by phenyl benzoquinone [9]: 60%
- Solubility in ethanol ([3]; in words): Soluble
- Solubility in propylene glycol ([3]; in words): Soluble
- Solubility in water ([3]; in words): Soluble
- local anesthesia activity [10]: high order of local anesthesia activity comparable to that of procaine

Structure (SMILES): COc1ccc2c3c1O[C@H]1[C@@H](O)C=C[C@H]4[C@@H](C2)N(C)CC[C@@]341 [CODEINE, codeine, reference compound]
- % variation of cough rating ([5]; t + 10 mn): -22%
- Cough rating, m = average of the ratings, after treatment ([5]; t + 10 mn): 0,75
- % variation of cough rating ([5]; t + 20 mn): -30%
- Cough rating, m = average of the ratings, after treatment ([5]; t + 20 mn): 0,67

Structure (SMILES): Cc1cc(Br)cc(C(=O)NCCN2CCCC2)c1O [Example 9, N(2'-pyrrolidino-ethyl)-5-bromo-3-methyl-salicylamide hydrochloride]
- Solubility in ethanol ([3]; % soluble): 3%
- Solubility in ether ([3]; in words): insoluble
- Solubility in propylene glycol ([3]; % soluble): 7%
- Solubility in water ([3]; in words): very soluble
